Ki data for 18 compounds are collected here from patent US20260001888A1, “PYRAZOLOPYRIMIDINE PDE9 INHIBITORS” (Merck Sharp & Dohme LLC, priority 2018, published 2026).

The assay concerns the target Human PDE9 (PDE9A2) (Homo sapiens (Human), UniProt O76083). Kind of assay: PDE9 IMAP fluorescence polarization (FP) inhibition assay. Particulars: apparent inhibition constant; human PDE9A2, FAM-cGMP substrate 50 nM, room temperature. The assay is classed as biochemical. The protocol: The activity of the compounds in accordance with the present invention as PDE9 inhibitors may be readily determined without undue experimentation using a fluorescence polarization (FP) methodology that is well known in the art (Huang, W., et al., J. Biomol Screen, 2002, 7:215).
In a typical experiment the PDE9 inhibitory activity of the compounds of the present invention was determined in accordance with the following experimental method.
Human PDE9 (PDE9A2, GenBank Accession No. NM_001001567), full length with N-terminal GST tag, was purchased from BPS Bioscience. The fluorescence polarization assay for cyclic nucleotide phosphodiesterases was performed using an IMAP® FP kit supplied by Molecular Devices, Sunnyvale, CA (product #R8139). IMAP® technology has been applied previously to phosphodiesterase assays (Huang, W., et al., J. Biomol Screen, 2002, 7:215). Assays were performed at room temperature in 384-well microtiter plates with an incubation volume of 20.2 μL. Solutions of test compounds were prepared in DMSO and serially diluted with DMSO to yield 8 μL of each of 10 solutions differing by 3-fold in concentration, at 32 serial dilutions per plate. 100% inhibition is determined using a known PDE9 inhibitor, such as 1-(2-chlorophenyl)-6-[(2R)-3,3,3-trifluoro-2-methylpropyl]-1,5-dihydro-4H-pyrazolo[3,4-d]pyrimidine-4-one (BAY 73-6691) (Wunder et al, Mol. Pharmacol., 2005, 68 (6): 1775-81), (6-[(3S,4S)-4-methyl-1-(pyrimidin-2-ylmethyl) pyrrolidin-3-yl]-1-(tetrahydro-2H-pyran-4-yl)-1,5-dihydro-4H-pyrazolo[3,4-d]pyrimidin-4-one (PF-04447943) (Wager et al., ACS Chemical Neuroscience, 2010, 1:435-449). 0% of inhibition is determined by using DMSO (1% final concentrations). A Labcyte Echo 555 (Labcyte, Sunnyvale, CA) is used to dispense 200 nL from each well of the titration plate to the 384 well assay plate. Human PDE9A2 membrane preps were diluted to 1 ng/ml. […] PDE9 enzyme mix and compounds were mixed and incubated at room temperature for 30 min. Following which, FAMcGMP substrate was added, shaken and incubated for an additional 60 min at room temperature. The final concentration of human PDE9 membrane preparations were 0.5 ng/ml. The final concentration of FAM-cGMP was 50 nM. After the incubation period, the enzymatic reaction was stopped by addition of binding solution (IMAP-FP, Molecular Devices, comprised of 80% Solution A, 20% Solution B and a 1:600 dilution of binding reagent) to each well. The plates were shaken then incubated at room temperature for 1 h prior to determining the fluorescence polarization (mP) using a Perkin Elmer En Vision™ plate reader (Waltham, MA).
Fluorescence polarization (mP) was calculated from the parallel(S) and perpendicular (P) fluorescence of each sample well and the analogous values for the median control well, containing only substrate (So and Po), using the following equation: […]
Dose-inhibition profiles for each compound were characterized by fitting the mP data to a four-parameter equation given below. The apparent inhibition constant (KI), the maximum inhibition at the low plateau relative to “100% Inhibition Control” (Imax; e.g. 1=>same as this control), the minimum inhibition at the high plateau relative to the “0% Inhibition Control” (Imin, e.g. 0=>same as the no drug control) and the Hill slope (nH) are determined by a non-linear least squares fitting of the mP values as a function of dose of the compound using an in-house software based on the procedures described by Mosser et al., JALA, 2003, 8:54-63, using the following equation: […]
An apparent (Km) for FAM-labeled […] of 150 nM was determined in separate experiments through simultaneous variation of substrate and selected drug concentrations.
On the technique in general: In fluorescence polarisation assays a small probe gives low polarisation when free and higher when bound to something large.

Sequence of Human PDE9 (PDE9A2) (O76083 other isoform, or with tags, fused parts or gaps): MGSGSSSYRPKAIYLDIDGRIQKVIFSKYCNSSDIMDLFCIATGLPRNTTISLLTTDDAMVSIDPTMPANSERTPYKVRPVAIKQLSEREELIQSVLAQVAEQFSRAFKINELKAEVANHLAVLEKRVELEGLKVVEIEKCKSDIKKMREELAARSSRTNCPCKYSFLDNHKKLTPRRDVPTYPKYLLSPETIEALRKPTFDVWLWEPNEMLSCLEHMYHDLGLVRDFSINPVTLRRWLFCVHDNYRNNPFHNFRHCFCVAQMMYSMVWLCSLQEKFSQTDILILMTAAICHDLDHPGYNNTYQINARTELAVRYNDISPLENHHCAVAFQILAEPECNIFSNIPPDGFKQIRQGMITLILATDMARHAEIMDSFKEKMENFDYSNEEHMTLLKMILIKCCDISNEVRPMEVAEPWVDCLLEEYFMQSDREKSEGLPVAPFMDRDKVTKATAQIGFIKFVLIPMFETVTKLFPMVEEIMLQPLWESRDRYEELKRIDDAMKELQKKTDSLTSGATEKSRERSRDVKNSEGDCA

For the compound `CCC(c1ncc(C(F)F)cn1)N(C)c1nc2c(c(C#N)nn2C(C)c2ccc(C(F)(F)F)nc2)c(=O)[nH]1` (single isomer, unassigned) [Example 20, 6-[1-[5-(difluoromethyl)pyrimidin-2-yl]propyl-methyl-amino]-4-oxo-1-[1-[6-(trifluoromethyl)-3-pyridyl]ethyl]-5H-pyrazolo[3,4-d]pyrimidine-3-carbonitrile], the Ki is 1.57 nM.

On to `CC(C)C(c1ncccn1)N(C)c1nc2c(c(C#N)nn2C(C)c2ccc(C(F)(F)F)nc2)c(=O)[nH]1` (single isomer, unassigned) [Example 21, 6-[methyl-(2-methyl-1-pyrimidin-2-yl-propyl)amino]-4-oxo-1-[1-[6-(trifluoromethyl)-3-pyridyl]ethyl]-5H-pyrazolo[3,4-d]pyrimidine-3-carbonitrile], for which the Ki came to 15.2 nM.

With `CC(C)C(c1ncccn1)N(C)c1nc2c(c(C#N)nn2C(C)c2ccc(C(F)(F)F)nc2)c(=O)[nH]1` (single isomer, unassigned) [Example 22, 6-[methyl-(2-methyl-1-pyrimidin-2-yl-propyl)amino]-4-oxo-1-[1-[6-(trifluoromethyl)-3-pyridyl]ethyl]-5H-pyrazolo[3,4-d]pyrimidine-3-carbonitrile], the Ki was 6.5 nM. Regarding `CC(C)C(c1ncccn1)N(C)c1nc2c(c(C#N)nn2C(C)c2ccc(C(F)(F)F)nc2)c(=O)[nH]1` (single isomer, unassigned) [Example 23, 6-[methyl-(2-methyl-1-pyrimidin-2-yl-propyl)amino]-4-oxo-1-[1-[6-(trifluoromethyl)-3-pyridyl]ethyl]-5H-pyrazolo[3,4-d]pyrimidine-3-carbonitrile], the Ki was determined as 0.6 nM.

As to `CC(C)C(c1ncccn1)N(C)c1nc2c(c(C#N)nn2C(C)c2ccc(C(F)(F)F)nc2)c(=O)[nH]1` (single isomer, unassigned) [Example 24, 6-[methyl-(2-methyl-1-pyrimidin-2-yl-propyl)amino]-4-oxo-1-[1-[6-(trifluoromethyl)-3-pyridyl]ethyl]-5H-pyrazolo[3,4-d]pyrimidine-3-carbonitrile], the Ki amounted to 69.2 nM. Then `CC(c1ccc(C(F)(F)F)nc1)n1nc(C#N)c2c(=O)[nH]c(N(C)C(c3ncccn3)C3CC3)nc21` (single isomer, unassigned) [Example 25, 6-[[cyclopropyl(pyrimidin-2-yl)methyl]-methyl-amino]-4-oxo-1-[1-[6-(trifluoromethyl)-3-pyridyl]ethyl]-5H-pyrazolo[3,4-d]pyrimidine-3-carbonitrile], with 4.08 nM; and `CC(c1ccc(C(F)(F)F)nc1)n1nc(C#N)c2c(=O)[nH]c(N(C)C(c3ncccn3)C3CC3)nc21` (single isomer, unassigned) [Example 26, 6-[[cyclopropyl(pyrimidin-2-yl)methyl]-methyl-amino]-4-oxo-1-[1-[6-(trifluoromethyl)-3-pyridyl]ethyl]-5H-pyrazolo[3,4-d]pyrimidine-3-carbonitrile], with 52.9 nM; and `CC(c1ccc(C(F)(F)F)nc1)n1nc(C#N)c2c(=O)[nH]c(N(C)C(c3ncccn3)C3CC3)nc21` (single isomer, unassigned) [Example 27, 6-[[cyclopropyl(pyrimidin-2-yl)methyl]-methyl-amino]-4-oxo-1-[1-[6-(trifluoromethyl)-3-pyridyl]ethyl]-5H-pyrazolo[3,4-d]pyrimidine-3-carbonitrile], with 6.67 nM.

In the case of `CC(c1ccc(C(F)(F)F)nc1)n1nc(C#N)c2c(=O)[nH]c(N(C)C(c3ncccn3)C3CC3)nc21` (single isomer, unassigned) [Example 28, 6-[[cyclopropyl(pyrimidin-2-yl)methyl]-methyl-amino]-4-oxo-1-[1-[6-(trifluoromethyl)-3-pyridyl]ethyl]-5H-pyrazolo[3,4-d]pyrimidine-3-carbonitrile], the Ki turned out to be 20.3 nM. Next, `CC(c1ccc(C(F)(F)F)nc1)n1nc(C#N)c2c(=O)[nH]c(N(C)C(c3ncccn3)C3CCC3)nc21` (single isomer, unassigned) [Example 29, 6-[[cyclobutyl(pyrimidin-2-yl)methyl]-methyl-amino]-4-oxo-1-[1-[6-(trifluoromethyl)-3-pyridyl]ethyl]-5H-pyrazolo[3,4-a]pyrimidine-3-carbonitrile]: 8.96 nM. Turning to `CC(c1ccc(C(F)(F)F)nc1)n1nc(C#N)c2c(=O)[nH]c(N(C)C(c3ncccn3)C3CCC3)nc21` (single isomer, unassigned) [Example 30, 6-[[cyclobutyl(pyrimidin-2-yl)methyl]-methyl-amino]-4-oxo-1-[1-[6-(trifluoromethyl)-3-pyridyl]ethyl]-5H-pyrazolo[3,4-a]pyrimidine-3-carbonitrile], the Ki worked out at 16.4 nM.

In the case of `CC(c1ccc(C(F)(F)F)nc1)n1nc(C#N)c2c(=O)[nH]c(N(C)C(c3ncccn3)C3CCC3)nc21` (single isomer, unassigned) [Example 31, 6-[[cyclobutyl(pyrimidin-2-yl)methyl]-methyl-amino]-4-oxo-1-[1-[6-(trifluoromethyl)-3-pyridyl]ethyl]-5H-pyrazolo[3,4-a]pyrimidine-3-carbonitrile], the Ki turned out to be 1.2 nM. Take `CCC(c1ccc(F)cn1)N(C)c1nc2c(c(C#N)nn2C(C)c2ccc(C(F)(F)F)nc2)c(=O)[nH]1` (single isomer, unassigned) [Example 33, 6-[1-(5-fluoro-2-pyridyl)propyl-methyl-amino]-4-oxo-1-[1-[6-(trifluoromethyl)-3-pyridyl]ethyl]-5H-pyrazolo[3,4-d]pyrimidine-3-carbonitrile]: the Ki was 0.59 nM.

In the case of `CCC(c1ccc(F)cn1)N(C)c1nc2c(c(C#N)nn2C(C)c2ccc(C(F)(F)F)nc2)c(=O)[nH]1` (single isomer, unassigned) [Example 34, 6-[1-(5-fluoro-2-pyridyl)propyl-methyl-amino]-4-oxo-1-[1-[6-(trifluoromethyl)-3-pyridyl]ethyl]-5H-pyrazolo[3,4-d]pyrimidine-3-carbonitrile], the Ki amounted to 0.16 nM.

In the case of `CCC(c1ccc(F)cn1)N(C)c1nc2c(c(C#N)nn2C(C)c2ccc(C(F)(F)F)nc2)c(=O)[nH]1` (single isomer, unassigned) [Example 35, 6-[1-(5-fluoro-2-pyridyl)propyl-methyl-amino]-4-oxo-1-[1-[6-(trifluoromethyl)-3-pyridyl]ethyl]-5H-pyrazolo[3,4-d]pyrimidine-3-carbonitrile], the Ki worked out at 7.12 nM. With `CCC(c1ccc(F)cn1)N(C)c1nc2c(c(C#N)nn2C(C)c2ccc(C(F)(F)F)nc2)c(=O)[nH]1` (single isomer, unassigned) [Example 36, 6-[1-(5-fluoro-2-pyridyl)propyl-methyl-amino]-4-oxo-1-[1-[6-(trifluoromethyl)-3-pyridyl]ethyl]-5H-pyrazolo[3,4-d]pyrimidine-3-carbonitrile], the Ki amounted to 19.9 nM. For the compound `CCC(c1ncc(F)cn1)N(C)c1nc2c(c(C#N)nn2C(C)C2CCOCC2)c(=O)[nH]1` (single isomer, unassigned) [Example 37, 6-[1-(5-fluoropyrimidin-2-yl)propyl-methyl-amino]-4-oxo-1-(1-tetrahydropyran-4-ylethyl)-5H-pyrazolo[3,4-d]pyrimidine-3-carbonitrile], the Ki was found to be 2.67 nM. Next, `CCC(c1ncc(F)cn1)N(C)c1nc2c(c(C#N)nn2C(C)C2CCOCC2)c(=O)[nH]1` (single isomer, unassigned) [Example 38, 6-[1-(5-fluoropyrimidin-2-yl)propyl-methyl-amino]-4-oxo-1-(1-tetrahydropyran-4-ylethyl)-5H-pyrazolo[3,4-d]pyrimidine-3-carbonitrile]: 8.35 nM.
